The text below walks through data of paper PMC10926604, “Discovery of a novel small molecule as CD47/SIRPα and PD-1/PD-L1 dual inhibitor for cancer immunotherapy” (Cell Communication and Signaling : CCS, 2024).

One assay concerns the target hTIM-3/hGal-9 (Homo sapiens, UniProt O00182+Q8TDQ0). Briefly: Blockade of other immune checkpoint pathways, TIM-3/Gal-9. The assay is classed as cell-based. As to conditions: Fig. S2.
Another assay deals with T1, human SIRPα (hSIRPα) (Homo sapiens, UniProt P78324).
T1 construct: SIPRα-IgV-His (human: SIA-H5225, mouse: SIA-M52H4, ACRO Biosystems); His; purchased ACRO Biosystems SIA-H5225
T1 sequence (P78324 32-137 limits assumed): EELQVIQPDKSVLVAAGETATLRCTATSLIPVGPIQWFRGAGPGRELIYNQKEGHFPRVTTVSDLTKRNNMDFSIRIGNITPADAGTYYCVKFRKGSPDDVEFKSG
The experiment in a line: MST binding assay, human SIRPα. As to conditions: SIRPα-IgV-His, read-out: dissociation constant (KD) for human SIRPα. As for the experimental part:
(§1) SIPRα-IgV-His (human: SIA-H5225, mouse: SIA-M52H4, ACRO Biosystems) and PD-L1-IgV-His (human: 10,084-H08H, mouse: 50,010-M08H, Sino Biological) proteins were labeled with Red-NHS647 dye (NT-MO-L001, NanoTemper) for subsequent experiments. SMC18 (C385-0664, ChemDiv) was serially diluted using PBST (from 0.0191 μM to 200 μM) and mixed with the labeled proteins. The samples were then aspirated using standard capillaries and assayed by MST instrument (Monolith NT.115, NanoTemper), and the results were analyzed using the analytical software Monolith NT.115 system to calculate the dissociation constant (KD) values.

A further assay concerns the target T2, human PD-1/PD-L1 (Homo sapiens, UniProt Q9NZQ7).
T2 construct: purchased Sino Biological 10,084-H02H; host or cells: CHO-K1-hPD-1 cells carry the partner (lentiviral transfection)
Briefly: Cell-based blocking assay, human PD-1/PD-L1. The conditions noted are these: CHO-K1-hPD-1 cells, PD-L1-Fc, flow cytometry; read-out: IC50 for blocking human PD-1/PD-L1 interaction. The protocol: The CHO-K1 cell line with stable expression of CD47 and PD-1 was constructed previously by our group. SMC18 was serially diluted using PBS 7.2 (containing 1% DMSO) and incubated with 100 ng of SIRPα-Fc protein (human: SIA-H5251, mouse: SIA-M5258, ACRO Biosystems) and 50 ng of PD-L1-Fc protein (human: 10,084-H02H, mouse: 50,010-M02H, Sino Biological) on ice for 30 min. The mixture was then added to the corresponding CHO-K1-CD47 or CHO-K1-PD-1 cells and further incubated on ice for 30 min. Afterward, PE-conjugated anti-human IgG (Fc) antibody (A18272, eBioscience) was added. The mean fluorescence intensity (MFI) of the cells was detected using flow cytometry (BD FACSCalibur) and the blocking efficiency was calculated.
Background: Flow cytometry measures light scatter and fluorescence of single cells or particles in a stream.

Another assay addresses T3, murine PD-L1 (mPD-L1) (Mus musculus, UniProt Q9EP73).
T3 construct: PD-L1-IgV-His (human: 10,084-H08H, mouse: 50,010-M08H, Sino Biological); His; purchased Sino Biological 50,010-M08H
The experiment in a line: MST binding assay, murine PD-L1. As to conditions: PD-L1-IgV-His, read-out: dissociation constant (KD) for murine PD-L1. As for the experimental part: as §1

One may read the Kd as the equilibrium constant for the complex coming apart.

“Also recorded” adds a separate entry of the source.

hTIM-3/hGal-9, sequence (Q8TDQ0 22-301): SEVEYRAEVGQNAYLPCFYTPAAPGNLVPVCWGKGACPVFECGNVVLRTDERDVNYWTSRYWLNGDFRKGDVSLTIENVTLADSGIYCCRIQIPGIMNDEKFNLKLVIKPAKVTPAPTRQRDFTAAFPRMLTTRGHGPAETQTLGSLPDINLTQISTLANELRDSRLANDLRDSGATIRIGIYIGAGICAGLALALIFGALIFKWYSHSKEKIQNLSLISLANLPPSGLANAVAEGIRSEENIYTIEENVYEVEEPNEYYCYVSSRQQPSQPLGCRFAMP
hTIM-3/hGal-9, sequence (O00182 whole entry): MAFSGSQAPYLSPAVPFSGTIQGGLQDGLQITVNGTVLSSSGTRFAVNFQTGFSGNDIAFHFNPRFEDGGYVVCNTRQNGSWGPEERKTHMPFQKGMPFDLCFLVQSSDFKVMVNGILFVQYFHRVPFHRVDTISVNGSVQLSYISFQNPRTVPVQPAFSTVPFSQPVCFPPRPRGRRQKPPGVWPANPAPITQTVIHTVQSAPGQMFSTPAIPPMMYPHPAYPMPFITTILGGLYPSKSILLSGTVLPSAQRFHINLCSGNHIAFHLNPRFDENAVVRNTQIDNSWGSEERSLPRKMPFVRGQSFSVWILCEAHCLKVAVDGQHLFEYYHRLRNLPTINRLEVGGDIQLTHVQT
T2 sequence (Q9NZQ7 19-239 limits assumed): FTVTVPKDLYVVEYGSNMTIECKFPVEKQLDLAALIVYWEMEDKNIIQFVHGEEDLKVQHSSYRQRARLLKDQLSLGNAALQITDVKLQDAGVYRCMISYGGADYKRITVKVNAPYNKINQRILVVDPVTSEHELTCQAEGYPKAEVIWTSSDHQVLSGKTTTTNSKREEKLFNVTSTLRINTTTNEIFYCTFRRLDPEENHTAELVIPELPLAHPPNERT
T3 sequence (Q9EP73 19-127 limits assumed): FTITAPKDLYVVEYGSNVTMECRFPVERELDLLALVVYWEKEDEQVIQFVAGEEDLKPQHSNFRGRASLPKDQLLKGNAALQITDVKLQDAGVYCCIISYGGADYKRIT

As for `Cc1cc(C)cc(NS(=O)(=O)c2ccc3[nH]cc(C(=O)NCCc4ccccc4)c(=O)c3c2)c1` [SMC18], the “inhibitory effect on hTIM-3/hGal-9 pathway” value on hTIM-3/hGal-9 is “no blocking effect; also recorded: did not impede”. The results for the Kd on human SIRPα (hSIRPα) and at murine PD-L1 (mPD-L1) were 550 ± 100 nM and 25 ± 30 nM, respectively. Moreover, on human PD-1/PD-L1, the IC50 was 19700 ± 7000 nM.
